Data taken from patent US20240198337A1, “Bone Marrow on a Chip” (NEW YORK UNIVERSITY, priority 2021, published 2024).

Columns and labels:
NF-κB = NF-κB activation (nuclear translocation) in B-ALL cells in Leukemia-on-a-Chip; format: cell-based, murine; conditions: B-ALL cells with niche cells
Text: FIG. 8A through FIG. 8J depicts the results of niche cells promoting leukemia progression via cytokine and adhesive signaling. (FIG. 8A) The regional CXCR4 distribution on murine B-ALL cells cultured with or without niche cells. (FIG. 8B) The quantified result corresponding to (FIG. 8A). (FIG. 8C) Membrane-based ELISA analysis of CXCL12 expression level of niche cells (ECs and MSCs). (FIG. 8D) The quantified result corresponding to (FIG. 8C). (FIG. 8E) The representative image showing B-ALL cells co-localized with niche cells via VCAM-1/VLA-4 signaling. (FIG. 8F) The representative images showing nuclear translocation of NF-κB in B-ALL cells. (FIG. 8G) NF-κB activation in B-ALL cells with or without niche cells and under treatments with CXCR4 inhibitor, AMD3100 (AMD) and VLA-4 inhibitor, BIO5192 (BIO). The ratios were manually quantified from 3 experimental replicates (N>200). One-way ANOVA followed by Tukey's post hoc test. […] (FIG. 8I) The quantification of NF-κB activation in human NALM-6, 697, RS(4; 11), and UOCB1 blasts within their leukemia niches. The ratios were manually measured from 3 experimental replicates (N>150). (FIG. 8J) The quantification of NF-κB activation in patient-derived B-ALL blasts within engineered leukemia niches. The ratios for various B-ALL blasts were manually measured from 3 technical replicates (N>20). […]

murine B-ALL cells [1] = experiment: Combinational drug regimens in the murine leukemic niche model; format: cell-based; conditions: 5 μg/mL AMD, 1 μg/mL BIO or 10 μM BAY combined with NIL, PRE or VCR for 48 hr
Experimental: The 3D biomimetic leukemic niche model was exploited to test the combinational drug regimens in vitro. Generally, the murine leukemic niche models were cultured for 24 hr after fabrication, then respectively administrated with various pharmaceuticals [i.e. 5 μg/mL AMD3100 (AMD), 1 μg/mL BIO5192 (BIO), and 10 μM BAY 11-7082 (BAY), correspondingly], and concomitantly treated with 1 μM NIL, 1 μM PRE or 0.1 μM VCR for 48 hr. The viability of B-ALL cells was measured by the DAPI staining as described above.
The following investigation concerned whether co-targeting niche-derived pro-survival signals (CXCR4/CXCL12, VCAM-1/VLA-4, and NF-κB signaling) using either CXCR4 inhibitor (AMD), VLA-4 inhibitor (BIO), or NF-κB inhibitor (BAY) could improve the responsiveness of B-ALL-targeting chemotherapeutics. B-ALL blasts and niche cells (containing ECs and MSCs) were co-cultured for 24 hr in the Leukemia-on-a-Chip, and then administered individual niche-targeting compounds in combination with either NIL, PRE or VCR for 48 hr, after which B-ALL cell viability was measured. […] The lack of response to VLA-4 treatment may be due to VLA-4 blockade broke the leukemia dormancy to compensate the B-ALL death.

murine Ph+ B-ALL cells [2] = experiment: Drug resistance testing: B-ALL cell viability in 3D hydrogel devices (Calcein-AM/DAPI); format: cell-based; conditions: NF-κB blockade
murine B-ALL cells [3] = experiment: B-ALL cell adhesion onto niche cells with or without adhesion blockade; format: cell-based; conditions: VLA-4 blockade; 24 hours on niche cell monolayer
Experimental: (FIG. 11A) Experimental setup for testing murine B-ALL cell adhesion onto niche cells [i.e. ECs (C166), MSCs (OP9), and osteoblasts (MC3T3)] with or without adhesion blockade. B-ALL cells were plated into the dishes with niche cell monolayer and cultured for 24 hours, followed by five times washing with warm PBS. The images were then taken with 20× objective. (FIG. 11B) Adhered B-ALL cells were manually counted and plotted as cell number per filed. Each condition has 3 replicates with >10 images being counted. One-way ANOVA followed by Tukey's post hoc test (n.s., not significant, *p<0.05, **p<0.01).

murine Ph+ B-ALL cells [4] = experiment: Drug resistance testing: B-ALL cell viability in 3D hydrogel devices (Calcein-AM/DAPI); format: cell-based; conditions: NIL 1 μM, PRE 1 μM, VCR 0.1 μM; for viability of B-ALL cells in perivascular versus endosteal niche: 2-day treatment; for B-ALL eradication (viability): absence of niche cells; for B-ALL eradication (viability) / B-ALL drug-induced cell death (chemo-resistance): 48 hr; for B-ALL drug-induced cell death (chemo-resistance): presence of niche cells
Experimental: The outcome of drugs was defined by the viability of B-ALL cells as a cytotoxic end point after drug treatment. B-ALL cells were cultured alone or co-cultured with niche cells in 3D hydrogel devices for 24 hr, and then incubated with 1 μM nilotinib (NIL, Cayman Chemical), 1 μM prednisone (PRE, Sigma), and 0.1 μM vincristine (VCR, Sigma) for 48 hr. The cell viability was quantitatively determined by using Calcein-AM (Thermo Fischer Scientific) and DAPI, which respectively stained the live and dead cells. Briefly, cells were rinsed thrice with PBS and incubated with Calcein-AM and DAPI ([…] and 5 μg/mL in PBS or medium) solution for 30 min at 37° C., followed by a final rinse with PBS. Afterward, cells were observed under a fluorescence microscope, and cellular viability was quantitatively measured by counting the number of objects in the green (live cells) and red (dead cells) channels. Untreated groups of B-ALL cells were used as controls to benchmark the drug resistance of different groups.

c1cc(CN2CCCNCCNCCCNCC2)ccc1CN1CCCNCCNCCCNCC1 [AMD3100]
nuclear translocation of NF-κB in B-ALL cells (NF-κB): suppressed the nuclear translocation of NF-κB in B-ALL cells | responsiveness of B-ALL blasts to tumor-targeting agents (B-ALL killing) on niche co-targeting (murine B-ALL cells [1]): significantly reversed the chemo-protective activity of niche cells

Cc1ccc(S(=O)(=O)/C=C/C#N)cc1 [BAY 11-7082]
B-ALL survival (cell viability) (murine Ph+ B-ALL cells [2]; absence of niche cells): significantly decreased B-ALL survival | B-ALL survival (cell viability) (murine Ph+ B-ALL cells [2]; co-culture with niche cells): partially rescued B-ALL cell survival from BAY treatment | responsiveness of B-ALL blasts to tumor-targeting agents (B-ALL killing) on niche co-targeting (murine B-ALL cells [1]): significantly reversed the chemo-protective activity of niche cells

Cc1ccccc1NC(=O)Nc1ccc(CC(=O)N(C)[C@@H](CC(C)C)C(=O)NCC[C@H](NC(=O)[C@@H]2CCCN2S(=O)(=O)c2cc(Cl)cc(Cl)c2)C(=O)O)cc1 [BIO5192]
intercellular adhesion of B-ALL cells onto niche cells (murine B-ALL cells [3]): significantly decrease the intercellular adhesion of B-ALL cells onto niche cells | nuclear translocation of NF-κB in B-ALL cells (NF-κB): suppressed the nuclear translocation of NF-κB in B-ALL cells | responsiveness of B-ALL blasts to tumor-targeting agents (B-ALL killing) on niche co-targeting (murine B-ALL cells [1]): no significant effect on the responsiveness of B-ALL blasts to tumor-targeting agents

Cc1cn(-c2cc(NC(=O)c3ccc(C)c(Nc4nccc(-c5cccnc5)n4)c3)cc(C(F)(F)F)c2)cn1 [nilotinib]
viability of B-ALL cells in perivascular versus endosteal niche (murine Ph+ B-ALL cells [4]): a stronger dormancy and chemo-resistance of B-ALL cells in the endosteal niche | B-ALL eradication (viability) (murine Ph+ B-ALL cells [4]): efficient B-ALL eradication | B-ALL drug-induced cell death (chemo-resistance) (murine Ph+ B-ALL cells [4]): chemo-resistance phenomenon was confirmed | B-ALL drug-induced cell death (chemo-resistance) (murine Ph+ B-ALL cells [4]; listed as NIL): partial rescue of drug-induced cell death

C[C@]12C=CC(=O)C=C1CC[C@@H]1[C@@H]2C(=O)C[C@@]2(C)[C@H]1CC[C@]2(O)C(=O)CO [prednisone]
viability of B-ALL cells in perivascular versus endosteal niche (murine Ph+ B-ALL cells [4]): a stronger dormancy and chemo-resistance of B-ALL cells in the endosteal niche | B-ALL eradication (viability) (murine Ph+ B-ALL cells [4]): efficient B-ALL eradication | B-ALL drug-induced cell death (chemo-resistance) (murine Ph+ B-ALL cells [4]): chemo-resistance phenomenon was confirmed | B-ALL drug-induced cell death (chemo-resistance) (murine Ph+ B-ALL cells [4]; listed as PRE): partial rescue of drug-induced cell death
